Assays:
Experiment in all cases: Alzheimer's biomarker multiplex analysis, scopolamine-damaged SH-SY5Y
Format in all cases: cell-based, human
Conditions in all cases: Scopolamine (4 mM)
MPO = system: MPO
Experimental: (§1) After overnight incubation as in the previous examples, cells were treated with recombinant lectin protein having SEQ ID NO: 1 at different concentrations ranging from 0.001 μg/ml-1 μg/ml for 24 h for Parkinson disease and 0.01 μg/ml-25 μg/ml for 24 h for Alzheimer's disease. • Parkinson Disease: After 24 h of pre-treatment with recombinant lectin protein having SEQ ID NO: 1, cells were exposed (MPP+) for another 24 h. Cells treated with MPP+Iodide were included as Control. […] The cells treated with Galantamine were included as positive Control.
(§2) The levels of markers were determined by multiplex analysis as: Cell culture supernatants were diluted (1:2) with Calibrator Diluent. 50 μl of standard or sample was added per well. 50 μl of the microparticle cocktail was added to each well of the microplate and covered with a foil plate sealer. The plate was incubated for 2 hours at room temperature on a horizontal orbital microplate shaker. The plate was washed using a magnetic device designed to accommodate a microplate. Washing was done by applying the magnet to the bottom of the microplate, allowing 1 minute before removing the liquid, filling each well with wash buffer (100 μl) and allowing 1 minute before removing the liquid again. 50 μl of diluted Biotin-Antibody Cocktail was added to each well. Covered the plate with a foil plate sealer and incubated for 1 hour at room temperature on the shaker. Repeated the wash step. 50 μl of diluted Streptavidin-PE was added to each well. The plate was securely covered with a foil plate sealer and incubated for 30 minutes at room temperature on the shaker. Repeated the wash step. The microparticles were resuspended by adding 100 μl of Wash Buffer to each well. The plate was incubated for 2 minutes on the shaker and read within 90 minutes using Magpix® multiplex machine. Levels of biomarkers for Parkinson's and Alzheimer's disease were estimated using Magpix® multiplex machine.
(§3) For Alzheimer's disease the percent modulation in each sample was determined as follows: […]

RAGE = system: RAGE
Experimental: as §1, §2, §3

b-NGF = system: b-NGF
Experimental: as §1, §2, §3

For COc1ccc2c3c1O[C@H]1C[C@@H](O)C=C[C@@]31CCN(C)C2 [Galantamine, reference compound], the “% Change of Biomarkers markers (wrt Control) MPO” value (“% Change … (wrt Control) MPO” for short) (MPO; 1 μM) was −64%, the “% Change … (wrt Control) MPO” value (MPO; 10 μM) was −31.2% and the “% Change … (wrt Control) MPO” value (MPO; 100 μM) was −45.9%. The “% Change of Biomarkers markers (wrt Control) RAGE” value (“% Change … (wrt Control) RAGE” for short) (RAGE; 1 μM) was 0%, the “% Change … (wrt Control) RAGE” value (RAGE; 10 μM) was 0% and the “% Change … (wrt Control) RAGE” value (RAGE; 100 μM) was −38.7%. For the same compound, the “% Change of Biomarkers markers (wrt Control) b-NGF” value (from here on “% Change … (wrt Control) b-NGF”) (b-NGF; 1 μM) was 9.1%, the “% Change … (wrt Control) b-NGF” value (b-NGF; 10 μM) was 0% and the “% Change … (wrt Control) b-NGF” value (b-NGF; 100 μM) was −9%.

From patent US20240398899A1 (priority 2021, published 2024)
